The record followed here is patent publication US20260009085A1, “METHODS AND COMPOSITIONS FOR THE DIAGNOSIS AND TREATMENT OF CANCER” (Chengdu Anticancer Bioscience, Ltd., priority 2023, published 2026).

In assay [1] the test system is NCI-H23 cells. The assay can be described thus: Immunofluorescent analysis of AURKB mis-localization (6 hours) and polyploidy (72 hours). In kind it is cell-based, human. Particulars: 6 hours or 72 hours. The method, then:
The proportion of cells with AURKB mis-localization was measured to assess the function of MKLP2 (FIG. 3C). Immunofluorescent analysis of localization of kinetochore proteins AURKB and CREST was determined. Scale bar=10 μm. FIG. 3D is an immunoblot depicting the results of an experiment in which NCI-H23 cells were transiently transfected with MKLP2 siRNA. MKLP2 knockdown efficiency was assayed by immunoblot blot analysis 72 hours after transfection. FIG. 3E are graphs depicting the proportion of cells with AURKB mis-localization after treatment with MKLP2 siRNA after 6 hours of exposure and the proportion of polyploid cells after 72 hours.
Compounds were considered positive for the induction of polyploidy when the percentage of polyploid cells in the interphase population, was ≥5% (with deduction of basal level of polyploid cells) at 72 hours after initiation of treatment (FIG. 3A right panel, FIG. 3B right panel, and FIG. 3E right panel). Polyploid cells were defined as those with multinucleated nuclei, visible upon DAPI staining. The basal level of spontaneous polyploid cells with the screening cell line was less than 1%.
Immunofluorescent (IF) analysis was used to assess enzymatic activity (FIG. 3A left panel, FIG. 3B left panel, and FIG. 3E left panel) and localization of mitotic regulators. […]

Assay [2] concerns RPE-MYC. The assay is described as follows: Model cell screen: CPPC complex localization and cell death, RPE-MYC. In kind it is cell-based, human. The method, then: (§1) In the model screening cell lines, there was an indistinguishable threshold concentration of approximately 20 nM, which was required to show disruption of the CPPC complex by IHC at the spindle midzone and equatorial cortex of anaphase cells, indicating a failure in CPPC relocation. This similarity in the threshold effective concentration for target inhibition is, therefore, not influenced by overexpression of MYC. […] Similar data with other MYC-SL compounds were observed.

Assay [3] has as its system RPE-NEO. The assay is described as follows: Model cell screen: CPPC complex localization and cell death, RPE-NEO. It counts as cell-based, human. The method, then:
as §1

Assay [4] concerns Calu6 tumor model. The assay can be described thus: Calu6 xenograft tumor model (tumor growth, body weight, tumor weight, Ki-67). It counts as in vivo. Particulars: Calu6 xenografted mice. The method, then:
Xenografted mice were treated with novel antimitotic compounds LXY013, LW33R, and LG157, respectively (FIG. 4A). p-values in FIG. 4A are from Logrank analysis. Tumor growth curves and body weight over the course of the experiments are depicted with vehicle control in black, test compounds in gray (n=6). FIG. 4B is a set of images of tumors and a graph depicting tumor weight at an end-point of 20 days. FIG. 4C is a set of photomicrographs of immunohistochemistry analyses and its quantification, respectively, of Ki-67 expression in xenografts. For LG157, * is p<0.05. p-values in FIG. 4B and FIG. 4C are from multi-parametric analysis. **** is p<0.0001.
Additionally, the volume and weight of tumors in response to the compounds described herein were assessed (FIG. 4A-4B) as well as immunohistochemistry analyses and quantification of Ki-67 expression in xenografts (FIG. 4C).

[5] abbreviates: IHC at spindle midzone and equatorial cortex of anaphase cells.

Turning to `CNC(=O)c1cc(OC)cc(Oc2ncccc2-c2ccnc(C)c2)c1` [LG157], in assay [1], the “mitotic defects (AURKB mis-localization, polyploidy)” value was “elicit mitotic defects similar to those seen in cells treated with a known mitotic disruptor, paprotrain”. Also, the cell death entry in assay [2] was “extensive cell death occurred in RPE-MYC”; in assay [3] it was “not RPE-NEO cells”. Further, the “threshold concentration required to show disruption of the CPPC complex” value in assay [2] (setting [5]) and in assay [3] (setting [5]) was “approximately 20 nM” each time. Further, in assay [4], the tumor growth result was “inhibition of tumor growth”.
